Laboratory results taken from ChEMBL document CHEMBL1149877, “Synthesis and biological activities of 2-oxocycloalkylsulfonamides” (Bioorg Med Chem, 2008).
Converted amounts (≈) assume the structure as drawn.

Legend:
Botrytis cinerea = test: Antifungal activity against Botrytis cinerea Pers; type: functional, organism-based
Bel-7402 = test: Antitumor activity against human Bel7402 cells at 100 ug/mL by SRB method; type: functional
HL-60 = test: Antitumor activity against human HL60 cells at 100 ug/mL by MTT method; type: functional
BGC-823 = test: Antitumor activity against human BGC823 cells at 100 ug/mL by SRB method; type: functional
KB = test: Antitumor activity against human KB cells at 100 ug/mL by SRB method; type: functional
Sclerotinia sclerotiorum = test: Antifungal activity against Sclerotinia sclerotiorum; type: functional, organism-based

Structure (SMILES) | EC50 (Botrytis cinerea) [µg/mL] | inhibition at 100 µg/mL (Bel-7402) [%] | inhibition at 100 µg/mL (HL-60) [%] | inhibition at 100 µg/mL (BGC-823) [%] | inhibition at 100 µg/mL (KB) [%] | EC50 (Sclerotinia sclerotiorum) [µg/mL]
CC12CC1(C)C(=O)N(c1cc(Cl)cc(Cl)c1)C2=O (centres undefined) [PROCYMIDONE] | 2.45 (≈ 8.62 µM) |  |  |  |  | 
O=C1CCCCC1S(=O)(=O)Nc1ccc(Cl)cc1 (centres undefined) | 17 (≈ 59 µM) | 4.47 | -13 | 16 | -3.83 | 53.4 (≈ 186 µM)
Cc1ccc(NS(=O)(=O)C2CCCCC2=O)cc1 (centres undefined) | 21.2 (≈ 79.4 µM) | 27.5 | -3.55 | 32 | -22.2 | 116 (≈ 434 µM)
Cc1cc(F)ccc1NS(=O)(=O)C1CCCCC1=O (centres undefined) | 37.7 (≈ 132 µM) | 3.22 | -0.99 | 28.7 | -3.72 | 137 (≈ 480 µM)
Cc1cccc(NS(=O)(=O)C2CCCCCC2=O)c1C (centres undefined) | 11.6 (≈ 39.3 µM) | 12.1 | 22.9 | 23.8 | 2.01 | 47.6 (≈ 161 µM)
COc1cc(OC)nc(NS(=O)(=O)C2CCCCC2=O)n1 (centres undefined) | 28.6 (≈ 90.8 µM) | 39.3 | 2.62 | 26.4 | 2.73 | 197 (≈ 626 µM)
O=C1CCCCC1S(=O)(=O)Nc1ccccc1Cl (centres undefined) | 35.2 (≈ 122 µM) | 1.98 | 0.29 | 29.2 | -10.1 | 69.4 (≈ 241 µM)
Cc1ccc(NS(=O)(=O)C2CCCCC2=O)c(C)c1 (centres undefined) | 17 (≈ 60.3 µM) | 0.52 | 12.2 | 15.6 | 7.97 | 112 (≈ 397 µM)
O=C1CCCCCC1S(=O)(=O)Nc1ccc(Cl)c(Cl)c1 (centres undefined) | 2.38 (≈ 7.08 µM) | 4.03 | 15 | 28.9 | -6.3 | 16.4 (≈ 48.7 µM)
O=C1CCCCC1S(=O)(=O)N1CCOCC1 (centres undefined) | 85.2 (≈ 345 µM) | 6.01 | 11 | 21.3 | -4.35 | 331 (≈ 1340 µM)
O=C1CCCCC1S(=O)(=O)Nc1cccc(C(F)(F)F)c1 (centres undefined) | 85.2 (≈ 265 µM) | 11.4 | 17 | 21.6 | -6.3 | 144 (≈ 448 µM)
O=C1CCCCC1S(=O)(=O)Nc1cc(C(F)(F)F)cc(C(F)(F)F)c1 (centres undefined) | 3.96 (≈ 10.2 µM) | 66.9 | 95.9 | 70.8 | 76 | 24.1 (≈ 62 µM)
O=C1CCCCCC1S(=O)(=O)Nc1cc(C(F)(F)F)cc(C(F)(F)F)c1 (centres undefined) | 2.43 (≈ 6.02 µM) | 45.3 | 95.8 | 57 | 59 | 8.05 (≈ 20 µM)
O=C1CCCCC1S(=O)(=O)Nc1cc(C(F)(F)F)ccc1C(F)(F)F (centres undefined) | 3.66 (≈ 9.4 µM) | 68.3 | 95.7 | 57.7 | 68.6 | 70.5 (≈ 181 µM)
O=C1CCCCC1S(=O)(=O)Nc1ccccc1Br (centres undefined) | 50.6 (≈ 152 µM) | 22.1 | 15.3 | 29.6 | -14.4 | 47.8 (≈ 144 µM)
O=C1CCCCC1S(=O)(=O)Nc1ccc(Cl)cc1C(F)(F)F (centres undefined) | 2.12 (≈ 5.96 µM) | 20.9 | 78.6 | 36.4 | 11.2 | 47.5 (≈ 134 µM)
N#Cc1c(Cl)c(Cl)c(Cl)c(C#N)c1Cl [CHLOROTHALONIL] |  |  |  |  |  | 7.16 (≈ 26.9 µM)
Cc1cccc(NS(=O)(=O)C2CCCCC2=O)c1C (centres undefined) | 24.2 (≈ 86 µM) | 21.8 | 9.38 | 24.5 | -20.6 | 59.3 (≈ 211 µM)
O=C1CCCCC1S(=O)(=O)Nc1ccc(Cl)c(Cl)c1 (centres undefined) | 7.23 (≈ 22.4 µM) | 1.39 | 13.5 | 5.54 | 17.8 | 24.2 (≈ 75.2 µM)
